The results in this text go back to patent US4335249A, “Herbicidal diphenyl ethers, sulfides, sulfoxides and sulfones” (Rohm and Haas Company, priority 1976, dated 1982).

Common to all, as to format: in vivo
Assay [1] relates to tomato (Lycopersicon esculentum). The experiment in a line: Preemergence herbicidal activity, tomato. The conditions noted are these: Solanum lycopersicum, pre-emergence, 336 h; Pre, 2 lb/A. The procedure, abridged: (§1)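 Acetone-dissolved compound, water-diluted, sprayed over soil flats at 50 gallons/acre carrier and lb/A rates; pre- vs postemergence timing is at planting vs two weeks after germination. Evaluation ~two weeks post-spray, expressed as mean percentage of plants dead.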

The test system of assay [2] is wild oats (Avena fatua). The experiment in a line: Postemergence herbicidal activity, wild oats. The conditions noted are these: Avena fatua, post-emergence, 336 h, Post, 2 lb/A; read-out: % control, Wild oat. In a few lines: as §1
Assay [3] deals with cocklebur (Xanthium pensylvanicum). The assay is described as follows: Preemergence herbicidal activity, cocklebur. The note with it: Xanthium strumarium, pre-emergence, 336 h, 2 lb/A. In a few lines: as §1
Assay [4] deals with foxtail (Setaria spp.). The assay is described as follows: Preemergence herbicidal activity, foxtail. The note with it: Setaria, pre-emergence, 336 h; Pre, 2 lb/A. The procedure, abridged:
as §1

In assay [5] the test system is marigold (Tagetes spp.). The assay is described as follows: Preemergence herbicidal activity, marigold. The note with it: pre-emergence, 336 h, 2 lb/A. In a few lines:
as §1

The subject of assay [6] is wild oats (Avena fatua). The experiment in a line: Preemergence herbicidal activity, wild oats. The conditions noted are these: Avena fatua, pre-emergence, 336 h, Pre, 2 lb/A; read-out: % control, Wild oat. The procedure, abridged:
as §1

Assay [7] deals with marigold (Tagetes spp.). The experiment in a line: Postemergence herbicidal activity, marigold. The note with it: post-emergence, 336 h, 2 lb/A. The procedure, abridged: as §1
Assay [8] has as its system morningglory (Ipomoca spp.). The assay is described as follows: Preemergence herbicidal activity, morningglory. The conditions noted are these: Ipomoea, pre-emergence, 336 h, 2 lb/A. The procedure, abridged:
as §1

Assay [9] concerns downybrome (Bromus tectorum). The assay is described as follows: Preemergence herbicidal activity, downybrome. The note with it: Bromus tectorum, pre-emergence, 336 h, Pre, 2 lb/A. The procedure, abridged: as §1
Assay [10] has as its system yellow nutsedge (Cyperus esculentus). The experiment in a line: Preemergence herbicidal activity, yellow nutsedge. The conditions noted are these: Cyperus, pre-emergence, 336 h, 2 lb/A. In a few lines: as §1
Assay [11] shares this test system. The assay is described as follows: Postemergence herbicidal activity, yellow nutsedge. The conditions noted are these: Cyperus, post-emergence, 336 h, 2 lb/A. In a few lines:
as §1

Assay [12] deals with barnyardgrass (Echinochloa crusgalli). The assay is described as follows: Preemergence herbicidal activity, barnyardgrass. The note with it: Echinochloa crus-galli, pre-emergence, 336 h; Pre, 2 lb/A. The procedure, abridged:
(§2)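 Compounds dissolved in acetone, diluted with water, and sprayed onto soil flats at 50 gallons per acre carrier volume at stated lb/A rates. Preemergence: applied immediately after planting; postemergence: applied two weeks after germination.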

Assay [13] relates to foxtail (Setaria spp.). The assay is described as follows: Postemergence herbicidal activity, foxtail. The note with it: Setaria, post-emergence, 336 h, Post, 2 lb/A. The procedure, abridged:
as §1

Assay [14] relates to morningglory (Ipomoca spp.). The assay is described as follows: Postemergence herbicidal activity, morningglory. The conditions noted are these: Ipomoea, post-emergence, 336 h, 2 lb/A. The procedure, abridged:
as §1

The test system of assay [15] is barnyardgrass (Echinochloa crusgalli). The experiment in a line: Postemergence herbicidal activity, barnyardgrass. The note with it: Echinochloa crus-galli, post-emergence, 336 h; Post, 2 lb/A. The procedure, abridged:
as §2

Assay [16] concerns velvetleaf (Abutilon theophrasti). The assay is described as follows: Postemergence herbicidal activity, velvetleaf. The note with it: Abutilon theophrasti, post-emergence, 336 h, 2 lb/A. The procedure, abridged: as §2
For assay [17] the test system is unchanged. The experiment in a line: Preemergence herbicidal activity, velvetleaf. The note with it: Abutilon theophrasti, pre-emergence, 336 h; Pre, 2 lb/A. In a few lines:
as §1

In assay [18] the test system is downybrome (Bromus tectorum). The experiment in a line: Postemergence herbicidal activity, downybrome. The conditions noted are these: Bromus tectorum, post-emergence, 336 h, Post, 2 lb/A. The procedure, abridged: as §1
Assay [19] deals with cocklebur (Xanthium pensylvanicum). The assay is described as follows: Postemergence herbicidal activity, cocklebur. The conditions noted are these: Xanthium strumarium, post-emergence, 336 h, 2 lb/A. In a few lines:
as §1

For assay [20], the system named is tomato (Lycopersicon esculentum). The assay is described as follows: Postemergence herbicidal activity, tomato. The note with it: Solanum lycopersicum, post-emergence, 336 h, Post, 2 lb/A. The procedure, abridged: as §1

Take `CCCCOC(=O)C(C)Oc1ccc(Oc2ccc(C(F)(F)F)cc2Cl)cc1` (centres unmarked) [Example 23]: the pest or weed control at 2241.7 g/ha in assay [1] is 0%; in [2], 100%; in assay [3], 0%; in assay [4] it was 100%; in assay [5], 0%; in assay [6] it was 80%. Besides, the pest or weed control at 2241.7 g/ha in [7] was determined as 30%; in assay [8], 0%; in assay [9], 99%; in assay [10], 30%; in assay [11] it was 0%; in assay [12] it was 100%. The pest or weed control at 2241.7 g/ha in assay [13] was 100%; in assay [14], 20%; in assay [15], 100%; in assay [16], 40%; in assay [17], 0%; in assay [18], 99%. Besides, the pest or weed control at 2241.7 g/ha in [19] was 0%; in assay [20], 99%.
With `C=CCOC(=O)C(C)Oc1ccc(Oc2ccc(C(F)(F)F)cc2Cl)cc1` (centres unmarked) [Example 24], the pest or weed control at 2241.7 g/ha in [1] turned out to be 0%; in [2], 100%; in assay [3], 100%; in [4], 100%; in assay [5], 0%; in [6] it was 80%. The pest or weed control at 2241.7 g/ha was determined as 50% in [7]; 0% in assay [8]; 99% in [9]; 30% in assay [10]; 0% in assay [11]; 100% in assay [12]. The pest or weed control at 2241.7 g/ha came to 100% in assay [13]; 20% in assay [14]; 100% in assay [15]; 80% in assay [16]; 0% in [17]; 100% in assay [18]. Moreover, the pest or weed control at 2241.7 g/ha in [19] was 20%; in [20], 95%.
Turning to `COCCOC(=O)C(C)Oc1ccc(Oc2ccc(C(F)(F)F)cc2Cl)cc1` (centres unmarked) [Example 25], the pest or weed control at 2241.7 g/ha was determined as 0% in [1]; 100% in assay [2]; 0% in assay [3]; 100% in assay [4]; 0% in assay [5]; 70% in assay [6]. In addition, the pest or weed control at 2241.7 g/ha in [7] is 30%; in assay [8], 0%; in [9], 95%; in assay [10], 30%; in [11], 40%; in assay [12] it was 100%. Moreover, the pest or weed control at 2241.7 g/ha was 100% in [13]; 40% in [14]; 100% in assay [15]; 60% in [16]; 0% in assay [17]; 80% in assay [18]. The results for the pest or weed control at 2241.7 g/ha in [19] and in [20] were 20% and 95%, respectively.
On to `CCCCCCCCOC(=O)C(C)Oc1ccc(Oc2ccc(C(F)(F)F)cc2Cl)cc1` (centres unmarked) [Example 26], for which the pest or weed control at 2241.7 g/ha worked out at 0% in [1]; 20% in assay [2]; 0% in [3]; 0% in assay [4]; 0% in assay [5]; 50% in assay [6]. The pest or weed control at 2241.7 g/ha in assay [7] came to 70%; in assay [8], 0%; in [9], 0%; in assay [10], 0%; in assay [11], 20%; in [12], 50%. Besides, the pest or weed control at 2241.7 g/ha in assay [13] stood at 100%; in [14], 70%; in [15], 100%; in assay [16], 50%; in assay [17] it was 0%; in assay [18] it was 50%. The pest or weed control at 2241.7 g/ha in assay [19] stood at 60%; in assay [20], 30%.
Regarding `CCOC(=O)C(C)Oc1ccc(Oc2ccc(C(F)(F)F)cc2)cc1` (centres unmarked) [Example 27], the pest or weed control at 2241.7 g/ha in assay [1] was 0%; in assay [2], 100%; in [3], 0%; in assay [4] it was 100%; in assay [5] it was 0%; in [6], 99%. Further, the pest or weed control at 2241.7 g/ha came out at 100% in [7]; 0% in assay [8]; 99% in assay [9]; 0% in [10]; 0% in assay [11]; 100% in [12]. The pest or weed control at 2241.7 g/ha in assay [13] is 100%; in assay [14] it was 95%; in assay [15], 100%; in [16], 40%; in [17], 0%; in assay [18], 100%. For the same compound, the values for the pest or weed control at 2241.7 g/ha in assay [19] and in assay [20] were 70% and 60%, respectively.
In the case of `CCOC(=O)C(Oc1ccc(Oc2ccc(C(F)(F)F)cc2Cl)cc1)C(C)C` (centres unmarked) [Example 28], the pest or weed control at 2241.7 g/ha turned out to be 0% in assay [1]; 60% in assay [2]; 0% in assay [3]; 90% in assay [4]; 0% in assay [5]; 0% in [6]. In addition, the pest or weed control at 2241.7 g/ha is 0% in assay [7]; 70% in [8]; 30% in [9]; 0% in [10]; 0% in assay [11]; 95% in assay [12]. Besides, the pest or weed control at 2241.7 g/ha in [13] was determined as 99%; in assay [14] it was 0%; in assay [15] it was 60%; in [16], 0%; in assay [17], 0%; in [18] it was 20%. Moreover, the pest or weed control at 2241.7 g/ha in assay [19] and in assay [20] was 0% each time.
In the case of `CC(Oc1ccc(Oc2ccc(C(F)(F)F)cc2)cc1)C(=O)O` (centres unmarked) [Example 29], the pest or weed control at 2241.7 g/ha worked out at 0% in assay [1]; 100% in assay [2]; 0% in assay [3]; 100% in [4]; 0% in assay [5]; 95% in [6]. The pest or weed control at 2241.7 g/ha stood at 30% in assay [7]; 0% in assay [8]; 99% in [9]; 0% in assay [10]; 0% in assay [11]; 100% in [12]. Besides, the pest or weed control at 2241.7 g/ha in assay [13] is 100%; in [14] it was 0%; in [15], 100%; in [16], 0%; in assay [17], 0%; in assay [18] it was 80%. The pest or weed control at 2241.7 g/ha in assay [19] turned out to be 0%; in assay [20] it was 30%.
